One test deals with T1, PDK1 (Homo sapiens, UniProt O15530).
T1 construct: His6 (N)
T1 sequence (O15530 51-556 limits assumed): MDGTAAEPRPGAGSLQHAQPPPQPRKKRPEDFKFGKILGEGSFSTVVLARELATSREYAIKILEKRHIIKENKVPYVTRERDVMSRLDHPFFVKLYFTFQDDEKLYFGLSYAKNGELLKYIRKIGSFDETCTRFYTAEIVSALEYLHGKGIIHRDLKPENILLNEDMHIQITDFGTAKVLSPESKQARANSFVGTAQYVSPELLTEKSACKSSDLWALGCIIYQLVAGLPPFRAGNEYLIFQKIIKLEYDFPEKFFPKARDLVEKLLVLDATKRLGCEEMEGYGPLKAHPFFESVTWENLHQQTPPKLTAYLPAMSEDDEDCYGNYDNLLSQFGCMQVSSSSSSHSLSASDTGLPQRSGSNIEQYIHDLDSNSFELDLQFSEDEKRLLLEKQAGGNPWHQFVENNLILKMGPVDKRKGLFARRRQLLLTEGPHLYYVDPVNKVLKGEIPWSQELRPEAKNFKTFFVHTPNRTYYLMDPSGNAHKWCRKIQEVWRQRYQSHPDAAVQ
As to the kind of experiment: Test for the inhibition of PDK1 (flashplate, 33P-ATP). The note with it: His6-PDK1 (1-50) 3.4 nM, 4 μM ATP, 30° C., 60 min; read-out: IC50 [PDK1] biochemical. How it is done:
The experimental batches are carried out in a flashplate system with 384 wells/microtitration plate.
In each case, the PDK1 sample His6-PDK1 (1-50) (3.4 nM), the PDK1 substrate biotin-bA-bA-[…] (400 nM), 4 μM ATP (with 0.2μ Ci of ^33P-ATP/well) and the test substance in 50 μl of conventional experimental solution per well are incubated at 30° C. for 60 min. The test substances are employed in corresponding concentrations (if desired in a dilution series). The control is carried out without test substance. The reaction is stopped using standard methods and washed. The activity of the kinase is measured via the incorporated radioactivity in top count. In order to determine the non-specific kinase reaction (blank value), the experimental batches are carried out in the presence of 100 nM staurosporin.
The radioactivity (decompositions per minute) of the blank value (no use of test substance in the presence of staurosporin) is subtracted from all other radioactivity values. The controls (kinase activity without test substance) are set equal to 100 percent and all other radioactivity values (after subtracting the blank value) are expressed set in relation thereto (for example in % of the control).
IC50 values (50% inhibition) are determined with the aid of statistics programmes, such as, for example, RS1.
As a reminder, the IC50 is the concentration that gives 50% inhibition. With `Cn1cc(-c2cnc3[nH]cc(-c4nnc(C(O)c5ccccc5Cl)o4)c3c2)cn1` (racemic) [A58], the IC50 fell in the range of 0.5 to 1000 nM. `Cn1cc(-c2cnc3[nH]cc(-c4cc([C@@](C)(O)c5ccccc5)on4)c3c2)cn1` (single isomer, unassigned) [A34]: the IC50 was 0.5 to 1000 nM.

`Cn1cc(-c2cnc3[nH]cc(-c4cc([C@](C)(O)c5ccccc5)on4)c3c2)cn1` (single isomer, unassigned) [A35]: the IC50 lay within 0.5 to 1000 nM.

With `Cn1cc(-c2cnc3[nH]cc(-c4cc([C@](C)(O)c5ccccc5F)on4)c3c2)cn1` (single isomer, unassigned) [A55], the 50% inhibitory concentration (IC50) is 0.5 to 1000 nM. Regarding `Cn1cc(-c2cnc3[nH]cc(-c4cc([C@](C)(O)c5ccccc5F)on4)c3c2)cn1` (single isomer, unassigned) [A56], the concentration for half-maximal inhibition (IC50) lay in the range of 0.5 to 1000 nM. On to `Cn1cc(-c2cnc3[nH]cc(-c4cc([C@](C)(O)c5cccc(F)c5)on4)c3c2)cn1` (single isomer, unassigned) [A62], for which the IC50 was 0.5 to 1000 nM. On the same count and under the same terms, the same measure for `CC[C@](O)(c1cc(-c2c[nH]c3ncc(-c4cnn(C)c4)cc23)no1)c1ccccc1F` (single isomer, unassigned) [A92]: 0.5 to 1000 nM. Take `CC[C@@](O)(c1cc(-c2c[nH]c3ncc(-c4cnn(C)c4)cc23)no1)c1ccccc1F` (single isomer, unassigned) [A93]: the IC50 fell in the range of 0.5 to 1000 nM. In the case of `Cn1cc(-c2cnc3[nH]cc(-c4nnc([C@H](O)c5ccccc5Cl)o4)c3c2)cn1` (single isomer, unassigned) [A131], the IC50 lay within 0.5 to 1000 nM. Turning to `Cn1cc(-c2cnc3[nH]cc(-c4noc(Cc5cccc(F)c5)n4)c3c2)cn1` [A8, 3-[5-(3-fluorobenzyl)-1,2,4-oxadiazol-3-yl]-5-(1-methyl-1H-pyrazol-4-yl)-1H-pyrrolo[2,3-b]pyridine], the IC50 lay in the range of 1000 to 10000 nM.

On to `Cn1cc(-c2cnc3[nH]cc(-c4noc(Cc5ccccc5F)n4)c3c2)cn1` [A13], for which the IC50 is 1000 to 10000 nM.

On to `Cn1cc(-c2cnc3[nH]cc(-c4noc(Cc5ccccc5)n4)c3c2)cn1` [A26], for which the IC50 lay in the range of 1000 to 10000 nM. For the molecule `Cn1cc(-c2cnc3[nH]cc(-c4n[nH]c(C(O)c5ccccc5)n4)c3c2)cn1` (stereo not drawn) [A30], the IC50 lay within 0.5 to 1000 nM.

In the case of `COC(C)(c1ccccc1)c1cc(-c2c[nH]c3ncc(-c4cnn(C)c4)cc23)nn1C` (stereo not drawn) [A73], the IC50 lay in the range of 1000 to 10000 nM.

Turning to `Cn1cc(-c2cnc3[nH]cc(-c4cc(C(C)(O)c5ccccc5)n(C)n4)c3c2)cn1` (stereo not drawn) [A76], the IC50 lay within 1000 to 10000 nM. With `CCOC(c1ccccc1)c1cc(-c2c[nH]c3ncc(-c4cnn(C)c4)cc23)n[nH]1` (stereo not drawn) [A90], the IC50 lay in the range of 0.5 to 1000 nM.

As for `Cn1cc(-c2cnc3[nH]cc(-c4cc(C(C)(O)c5ccnnc5)on4)c3c2)cn1` (stereo not drawn) [A98, 1-{3-[5-(1-methyl-1H-pyrazol-4-yl)-1H-pyrrolo[2,3-b]pyridin-3-yl]isoxazol-5-yl}-1-pyridazin-4-ylethanol], the half-maximal inhibitory concentration (IC50) fell in the range of 0.5 to 1000 nM.

In the case of `Cn1cc(-c2cnc3[nH]cc(-c4cc(C(O)(c5ccccc5)C5CCOCC5)[nH]n4)c3c2)cn1` (stereo not drawn) [A101, {5-[5-(1-methyl-1H-pyrazol-4-yl)-1H-pyrrolo[2,3-b]pyridin-3-yl]-2H-pyrazol-3-yl}phenyl(tetrahydropyran-4-yl)methanol], the IC50 was in the range of 0.5 to 1000 nM. For the molecule `Cn1cc(-c2cnc3[nH]cc(-c4cc(C(O)(c5ccccc5)C5CCOCC5)no4)c3c2)cn1` (stereo not drawn) [A102], the IC50 lay within 0.5 to 1000 nM. Consider `Cn1cc(-c2cnc3[nH]cc(-c4cc(C(O)(c5ccccc5)C5CCOCC5)on4)c3c2)cn1` (stereo not drawn) [A103], for which the concentration for half-maximal inhibition (IC50) was 0.5 to 1000 nM.

With `CCN(CC)Cc1cc(-c2c[nH]c3ncc(-c4cnn(C)c4)cc23)no1` [A104], the IC50 was 0.5 to 1000 nM. The same measure, in the same setting: the result for `Cn1cc(-c2cnc3[nH]cc(-c4cc(C(O)c5ccccc5)nn4CCO)c3c2)cn1` (stereo not drawn) [A106] reads 1000 to 10000 nM; that for `Cn1cc(-c2cnc3[nH]cc(-c4nnc([C@H](N)c5ccccc5)o4)c3c2)cn1` [A108, C—((R)—C-{5-[5-(1-methyl-1H-pyrazol-4-yl)-1H-pyrrolo[2,3-b]pyridin-3-yl]-1,3,4-oxadiazol-2-yl}-C-phenyl)methylamine], 0.5 to 1000 nM. The same measure, in the same setting: the result for `Cn1cc(-c2cnc3[nH]cc(-c4nnc([C@@H](N)c5ccccc5)o4)c3c2)cn1` [A109, C—((S)—C-{5-[5-(1-methyl-1H-pyrazol-4-yl)-1H-pyrrolo[2,3-b]-pyridin-3-yl]-1,3,4-oxadiazol-2-yl}-C-phenyl)methylamine] reads 0.5 to 1000 nM; that for `Cn1cc(-c2cnc3[nH]cc(-c4nnc(C5(c6ccnc(O)c6)CC5)o4)c3c2)cn1` [A111], 0.5 to 1000 nM; that for `CCC(N)(c1ccccc1)c1nnc(-c2c[nH]c3ncc(-c4cnn(C)c4)cc23)o1` (stereo not drawn) [A114], 1000 to 10000 nM. Consider `Cn1cc(-c2cnc3[nH]cc(-c4nnc(C(N)c5cccnc5)o4)c3c2)cn1` (stereo not drawn) [A115], for which the IC50 was in the range of 1000 to 10000 nM. The same measure, in the same setting: the result for `Cn1cc(-c2cnc3[nH]cc(-c4nnc(C(C)(C)c5ccnnc5)o4)c3c2)cn1` [A121, 5-(1-methyl-1H-pyrazol-4-yl)-3-[5-(1-methyl-1-pyridazin-4-ylethyl)-1,3,4-oxadiazol-2-yl]-1H-pyrrolo[2,3-b]pyridine] reads 1000 to 10000 nM.

In another test the target is T2, PDK1 (Homo sapiens, UniProt O15530).
T2 construct: endogenous in cells; host or cells: PC3 cells
T2 sequence (O15530 1-556): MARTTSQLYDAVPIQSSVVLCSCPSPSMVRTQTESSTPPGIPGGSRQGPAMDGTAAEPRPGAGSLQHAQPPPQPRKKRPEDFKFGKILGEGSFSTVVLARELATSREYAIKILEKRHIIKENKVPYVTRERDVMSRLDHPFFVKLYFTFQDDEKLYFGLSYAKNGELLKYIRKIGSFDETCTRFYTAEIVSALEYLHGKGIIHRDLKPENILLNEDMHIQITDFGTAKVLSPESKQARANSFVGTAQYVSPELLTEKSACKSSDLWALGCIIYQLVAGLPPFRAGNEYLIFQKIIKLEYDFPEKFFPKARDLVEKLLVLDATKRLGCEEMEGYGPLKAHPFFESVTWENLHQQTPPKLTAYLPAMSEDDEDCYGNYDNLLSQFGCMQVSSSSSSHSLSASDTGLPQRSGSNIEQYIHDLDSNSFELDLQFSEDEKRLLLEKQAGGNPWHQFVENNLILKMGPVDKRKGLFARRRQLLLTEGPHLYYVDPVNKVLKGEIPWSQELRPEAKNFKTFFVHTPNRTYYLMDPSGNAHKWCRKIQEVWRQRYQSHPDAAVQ
As to the kind of experiment: Cellular testing of PDK1 kinase inhibitors in PC3 cells (Luminex, phospho-T308-PKB). It is filed as cell-based. The conditions noted are these: 30 min, serum-free. How it is done:
Method for the Cellular Testing of PDK1 Kinase Inhibitors in PC3 Cells.
The cellular assay for the determination of the PDK1 kinase activity is carried out as a Luminex assay in the 96-well format. PC3 cells are sown at 20,000 cells per well in 100 μl of medium (45% of […]/45% of Ham's F12/10% of FCS) and incubated on the following day for 30 min with a serial dilution of the test substance (7 concentrations) under serum-free conditions. The cells are subsequently lysed using 90 μl of lysis buffer (20 mM tris/HCl pH 8.0, 150 mM NaCl, 1% of NP40, 10% of glycerol, 1% of phosphatase inhibitor I, 1% of phosphatase inhibitor II, 0.1% of protease inhibitor cocktail III, 0.01% of benzonase) per well, and the lysates are separated off from insoluble cell constituents by means of centrifugation through a 96-well filter plate (0.65 μm). The lysates are incubated overnight at 4° C. with shaking with Luminex beads to which an anti-total PKB antibody is coupled. The detection is carried out on the following day by addition of a phospho-T308-PKB antibody and a species-specific […] secondary antibody. The detection of phospho T308-PKB is carried out by measurement in a Luminex100 instrument by determination of 100 events per cavity in a measurement time of 60 sec. As pharmacological blank, the signals obtained from cells which have been treated with 10 μM staurosporin are subtracted from all other batches. The control value used for maximum phosphorylation of PKB on T308 are the signals from cells which have only been treated with the solvent (0.3% of DMSO). The values of the batches treated with test substance are calculated therefrom as percentage of control, and IC50 values are determined by means of RS 1.
Molecule `Cn1cc(-c2cnc3[nH]cc(-c4nnc(C(O)c5ccccc5Cl)o4)c3c2)cn1` (racemic) [A58] showed a 50% inhibitory concentration (IC50) of 0.5 to 1000 nM. In the case of `Cn1cc(-c2cnc3[nH]cc(-c4cc([C@@](C)(O)c5ccccc5)on4)c3c2)cn1` (single isomer, unassigned) [A34], the IC50 was 0.5 to 1000 nM. On the same count and under the same terms, the result for `Cn1cc(-c2cnc3[nH]cc(-c4cc([C@](C)(O)c5ccccc5)on4)c3c2)cn1` (single isomer, unassigned) [A35] reads 1000 to 10000 nM; that for `Cn1cc(-c2cnc3[nH]cc(-c4cc([C@](C)(O)c5ccccc5F)on4)c3c2)cn1` (single isomer, unassigned) [A55], 0.5 to 1000 nM. Take `Cn1cc(-c2cnc3[nH]cc(-c4cc([C@](C)(O)c5cccc(F)c5)on4)c3c2)cn1` (single isomer, unassigned) [A62]: the IC50 is 1000 to 10000 nM. Molecule `Cn1cc(-c2cnc3[nH]cc(-c4csc(Cc5ccccc5)n4)c3c2)cn1` [A2, 3-(2-benzyl-thiazol-4-yl)-5-(1-methyl-1H-pyrazol-4-yl)-1H-pyrrolo[2,3-b]pyridine] returned an IC50 of 1000 to 10000 nM. For `Cc1sc(Cc2ccccc2)nc1-c1c[nH]c2ncc(-c3cnn(C)c3)cc12` [A3], the IC50 lay in the range of 1000 to 10000 nM. Turning to `Cn1cc(-c2cnc3[nH]cc(-c4csc(Cc5cccc(F)c5)n4)c3c2)cn1` [A7], the IC50 lay within 1000 to 10000 nM.

`Cn1cc(-c2cnc3[nH]cc(-c4noc(C(=O)c5ccccc5)n4)c3c2)cn1` [A27] had an IC50 of 1000 to 10000 nM.

As to `Cn1cc(-c2cnc3[nH]cc(-c4nc(C5(c6ccccc6Cl)CC5)no4)c3c2)cn1` [A119], the IC50 lay within 1000 to 10000 nM. Same read-out and setting: the result for `Cn1cc(-c2cnc3[nH]cc(-c4nnc(C(O)c5ccc(C(=O)NC6CCCCC6)cc5Cl)o4)c3c2)cn1` (stereo not drawn) [A129, 3-chloro-N-cyclohexyl-4-(hydroxy-{5-[5-(1-methyl-1H-pyrazol-4-yl)-1H-pyrrolo[2,3-b]pyridin-3-yl]-1,3,4-oxadiazol-2-yl}methyl)benzamide] reads 1000 to 10000 nM.

These data come from US20130245355A1, “3-HETARYL-SUBSTITUTED PYRROLO[2,3 B]PYRIDINE DERIVATIVES AS PDK1 INHIBITORS” (MERCK PATENT GMBH, priority 2010, published 2013).
